Strand notation (5' to 3'): a small letter for the sugar, then the base; units joined by * are phosphorothioate-linked, units joined directly phosphodiester-linked; [ ] holds rarer units or linkages, { } end groups; capitals alone tell only the bases. e = 2'-O-(2-methoxyethyl) (MOE); [5mC] = 5-methylcytosine; d = 2'-deoxy (DNA)
system: human Factor 7 mRNA; assay: Antisense inhibition of human Factor 7 mRNA in HepB3 cells, 50 nM antisense oligonucleotide, lipofectin; format: cell-based; conditions: gapmers targeted to nucleobases 4868 to 4899 of SEQ ID NO: 1, Table 8
Method in brief: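 Percent inhibition of Factor 7 mRNA, relative to untreated control, comes from real-time RT-PCR with RIBOGREEN normalization, using primer probe set RTS 2927 in some runs. RNA was taken roughly 24 h after lipofectin delivery of 50 nM oligonucleotide into HepB3 cells.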

Substance | % Inhibition of human Factor 7 mRNA levels [%]
416508 (antisense e[5mC]*eG*eA*eG*eT*dT*d[5mC]*dT*dG*d[5mC]*dA*dG*dG*dA*dG*e[5mC]*eG*eG*e[5mC]*e[5mC]) [compound 416508] | 67
422294 (antisense eG*eA*dG*dT*dT*d[5mC]*dT*dG*d[5mC]*dA*dG*dG*dA*dG*d[5mC]*eG*eG*e[5mC]*e[5mC]*eT) [compound 422294] | 78

same assay, conditions: lipofectin, 50 nM antisense oligonucleotide, approximately 24 hours, Factor 7 mRNA by real-time RT-PCR (RTS 2927), relative to untreated control

Substance | % Inhibition [%]
416477 (antisense e[5mC]*eA*eG*e[5mC]*e[5mC]*dT*dG*dA*dG*dG*d[5mC]*d[5mC]*dA*dG*d[5mC]*eA*eG*eA*eT*e[5mC]) [compound 416477] | 74
416507 (antisense eG*eG*eT*eT*eA*d[5mC]*dT*dG*dA*dG*d[5mC]*dG*d[5mC]*dG*dG*eA*eA*eG*eA*eA) [compound 416507] | 73
416508 (antisense e[5mC]*eG*eA*eG*eT*dT*d[5mC]*dT*dG*d[5mC]*dA*dG*dG*dA*dG*e[5mC]*eG*eG*e[5mC]*e[5mC]) [compound 416508] | 67
416549 (antisense eG*eA*e[5mC]*eA*eA*dT*dG*dG*dT*d[5mC]*dA*dG*dG*dG*d[5mC]*eT*eG*eG*eT*eT) [compound 416549] | 68

same assay, conditions: oligonucleotides targeted to nucleobases 11830 to 11869 of SEQ ID NO: 1 (Table 9)

Substance | % Inhibition (human Factor 7 mRNA levels) [%]
416549 (antisense eG*eA*e[5mC]*eA*eA*dT*dG*dG*dT*d[5mC]*dA*dG*dG*dG*d[5mC]*eT*eG*eG*eT*eT) [compound 416549] | 69

same assay, conditions: oligonucleotides targeted to nucleobases 14707 to 14732 of SEQ ID NO: 1 (Table 11)

Substance | % Inhibition (human Factor 7 mRNA levels) [%]
416477 (antisense e[5mC]*eA*eG*e[5mC]*e[5mC]*dT*dG*dA*dG*dG*d[5mC]*d[5mC]*dA*dG*d[5mC]*eA*eG*eA*eT*e[5mC]) [compound 416477] | 71

system: human Factor 7 mRNA; assay: Antisense inhibition of human Factor 7 with short (14-mer) oligonucleotides in HepB3 cells, electroporation 1,000 nM; format: cell-based; conditions: electroporation, 1,000 nM antisense oligonucleotide, approximately 24 hours, Factor 7 mRNA relative to untreated control cells
Text: Short antisense oligonucleotides (shortmers) were designed to target a Factor 7 nucleic acid. The shortmers in Table 17 were designed as 2-10-2 MOE gapmers. The gapmers are 14 nucleotides in length, wherein the central gap segment is comprised of 10 2′-deoxynucleotides and is flanked on both sides (in the 5′ and 3′ directions) by wings comprising 2 nucleotides each. Each nucleotide in the 5′ wing segment and each nucleotide in the 3′ wing segment has a 2′-MOE modification. The internucleoside linkages throughout each gapmer are phosphorothioate (P═S) linkages. All cytidine residues throughout each gapmer are 5-methylcytidines.
Shortmers were evaluated for their ability to reduce human Factor 7 mRNA in HepB3 cells and compared with one 5-10-5 chimeric oligonucleotide from Table 16, ISIS 407939. HepB3 cells at a density of 20,000 cells per well in a 96-well plate were transfected using electroporation with 1,000 nM of antisense oligonucleotide. After a treatment period of approximately 24 hours, RNA was isolated from the cells and Factor 7 mRNA levels were measured by real-time RT-PCR, as described herein. Factor 7 mRNA levels were adjusted according to total RNA content as measured by RIBOGREEN®. Results are presented in Table 17 as percent inhibition of Factor 7 mRNA, relative to untreated control cells. ISIS 407939 is the first oligonucleotide in Table 17 to which the shortmers were compared, and is marked by an asterisk (*).

Substance | % Inhibition [%]
435478 (antisense eG*eA*dG*dG*d[5mC]*dA*d[5mC]*dA*d[5mC]*dT*dG*dG*eT*e[5mC]) [compound 435478] | 43
435479 (antisense e[5mC]*eA*d[5mC]*dT*d[5mC]*d[5mC]*d[5mC]*d[5mC]*dT*dT*dT*dG*eG*eG) [compound 435479] | 9

system: human Factor 7 mRNA; assay: Dose-dependent antisense inhibition of human Factor 7 in HepB3 cells, lipofectin; format: cell-based; conditions: 3.125 nM, HepB3 cells, approx. 16 hours (Table 14)
Experimental: Cells were plated at a density of 4,000 cells per well and treated with lipofectin reagent with 3.125 nM, 6.25 nM, 12.5 nM, 25 nM, 50 nM, and 100 nM concentrations of antisense oligonucleotide, as indicated in Table 3. After a treatment period of approximately 16 hours, RNA was isolated from the cells and Factor 7 mRNA levels were measured by real-time RT-PCR, as described herein. Human Factor 7 primer probe set RTS 2927 (forward sequence: […], incorporated herein as SEQ ID NO: 164; reverse sequence: […], incorporated herein as SEQ ID NO: 165; probe sequence: TGGGTGGTCTCCGCGGCCX, incorporated herein as SEQ ID NO: 166) was used to measure mRNA levels. Factor 7 mRNA levels were adjusted according to total RNA content as measured by RIBOGREEN®. Results are presented as percent inhibition of Factor 7, relative to untreated control cells.
Cells were plated at a density of 4,000 cells per well and transfected using lipofectin reagent with 6.25 nM, 12.5 nM, 25.0 nM, 50.0 nM, and 100.0 nM concentrations of antisense oligonucleotide, as indicated in Table 7. After a treatment period of approximately 16 hours, RNA was isolated from the cells and Factor 7 mRNA levels were measured by real-time RT-PCR, as described herein. Human Factor 7 primer probe set RTS 2927 was used to measure mRNA levels. Factor 7 mRNA levels were adjusted according to total RNA content as measured by RIBOGREEN®. Results are presented as percent inhibition of Factor 7, relative to untreated control cells.
Cells were plated at a density of 4,000 cells per well and transfected using lipofectin reagent with 3.125 nM, 6.25 nM, 12.5 nM, 25 nM, 50 nM, and 100 nM concentrations of antisense oligonucleotide, as specified in Table 14. After a treatment period of approximately 16 hours, RNA was isolated from the cells and Factor 7 mRNA levels were measured by quantitative real-time PCR. Human Factor 7 primer probe set RTS 2927 was used to measure mRNA levels. Factor 7 mRNA levels were adjusted according to total RNA content, as measured by RIBOGREEN®. Results are presented as percent inhibition of Factor 7, relative to untreated control cells.

Substance | percent inhibition of Factor 7 mRNA, relative to untreated control cells [%]
422294 (antisense eG*eA*dG*dT*dT*d[5mC]*dT*dG*d[5mC]*dA*dG*dG*dA*dG*d[5mC]*eG*eG*e[5mC]*e[5mC]*eT) [compound 422294] | 9

same assay, conditions: 12.5 nM, HepB3 cells, approx. 16 hours (Table 14)

Substance | percent inhibition of Factor 7 mRNA, relative to untreated control cells [%]
422294 (antisense eG*eA*dG*dT*dT*d[5mC]*dT*dG*d[5mC]*dA*dG*dG*dA*dG*d[5mC]*eG*eG*e[5mC]*e[5mC]*eT) [compound 422294] | 32

same assay, conditions: 25 nM, HepB3 cells, approx. 16 hours (Table 14)

Substance | percent inhibition of Factor 7 mRNA, relative to untreated control cells [%]
422294 (antisense eG*eA*dG*dT*dT*d[5mC]*dT*dG*d[5mC]*dA*dG*dG*dA*dG*d[5mC]*eG*eG*e[5mC]*e[5mC]*eT) [compound 422294] | 61

same assay, conditions: 50 nM, HepB3 cells, approx. 16 hours (Table 14)

Substance | percent inhibition of Factor 7 mRNA, relative to untreated control cells [%]
422294 (antisense eG*eA*dG*dT*dT*d[5mC]*dT*dG*d[5mC]*dA*dG*dG*dA*dG*d[5mC]*eG*eG*e[5mC]*e[5mC]*eT) [compound 422294] | 77

same assay, conditions: 100 nM, HepB3 cells, approx. 16 hours (Table 14)

Substance | percent inhibition of Factor 7 mRNA, relative to untreated control cells [%]
422294 (antisense eG*eA*dG*dT*dT*d[5mC]*dT*dG*d[5mC]*dA*dG*dG*dA*dG*d[5mC]*eG*eG*e[5mC]*e[5mC]*eT) [compound 422294] | 84

same assay, conditions: HepB3 cells, approx. 16 hours (Table 14)

Substance | percent inhibition of Factor 7 mRNA, relative to untreated control cells [%]
422294 (antisense eG*eA*dG*dT*dT*d[5mC]*dT*dG*d[5mC]*dA*dG*dG*dA*dG*d[5mC]*eG*eG*e[5mC]*e[5mC]*eT) [compound 422294] | 21

same assay, conditions: Table 7, 6.25 nM, approximately 16 hours

Substance | percent inhibition of Factor 7 [%]
416477 (antisense e[5mC]*eA*eG*e[5mC]*e[5mC]*dT*dG*dA*dG*dG*d[5mC]*d[5mC]*dA*dG*d[5mC]*eA*eG*eA*eT*e[5mC]) [compound 416477] | 21
416507 (antisense eG*eG*eT*eT*eA*d[5mC]*dT*dG*dA*dG*d[5mC]*dG*d[5mC]*dG*dG*eA*eA*eG*eA*eA) [compound 416507] | 30
416508 (antisense e[5mC]*eG*eA*eG*eT*dT*d[5mC]*dT*dG*d[5mC]*dA*dG*dG*dA*dG*e[5mC]*eG*eG*e[5mC]*e[5mC]) [compound 416508] | 42
416549 (antisense eG*eA*e[5mC]*eA*eA*dT*dG*dG*dT*d[5mC]*dA*dG*dG*dG*d[5mC]*eT*eG*eG*eT*eT) [compound 416549] | 38

same assay, conditions: Table 7, 12.5 nM, approximately 16 hours

Substance | percent inhibition of Factor 7 [%]
416477 (antisense e[5mC]*eA*eG*e[5mC]*e[5mC]*dT*dG*dA*dG*dG*d[5mC]*d[5mC]*dA*dG*d[5mC]*eA*eG*eA*eT*e[5mC]) [compound 416477] | 46
416507 (antisense eG*eG*eT*eT*eA*d[5mC]*dT*dG*dA*dG*d[5mC]*dG*d[5mC]*dG*dG*eA*eA*eG*eA*eA) [compound 416507] | 53
416508 (antisense e[5mC]*eG*eA*eG*eT*dT*d[5mC]*dT*dG*d[5mC]*dA*dG*dG*dA*dG*e[5mC]*eG*eG*e[5mC]*e[5mC]) [compound 416508] | 51
416549 (antisense eG*eA*e[5mC]*eA*eA*dT*dG*dG*dT*d[5mC]*dA*dG*dG*dG*d[5mC]*eT*eG*eG*eT*eT) [compound 416549] | 44

same assay, conditions: Table 7, 25.0 nM, approximately 16 hours

Substance | percent inhibition of Factor 7 [%]
416477 (antisense e[5mC]*eA*eG*e[5mC]*e[5mC]*dT*dG*dA*dG*dG*d[5mC]*d[5mC]*dA*dG*d[5mC]*eA*eG*eA*eT*e[5mC]) [compound 416477] | 64
416507 (antisense eG*eG*eT*eT*eA*d[5mC]*dT*dG*dA*dG*d[5mC]*dG*d[5mC]*dG*dG*eA*eA*eG*eA*eA) [compound 416507] | 70
416508 (antisense e[5mC]*eG*eA*eG*eT*dT*d[5mC]*dT*dG*d[5mC]*dA*dG*dG*dA*dG*e[5mC]*eG*eG*e[5mC]*e[5mC]) [compound 416508] | 71
416549 (antisense eG*eA*e[5mC]*eA*eA*dT*dG*dG*dT*d[5mC]*dA*dG*dG*dG*d[5mC]*eT*eG*eG*eT*eT) [compound 416549] | 63

same assay, conditions: Table 7, 50.0 nM, approximately 16 hours

Substance | percent inhibition of Factor 7 [%]
416477 (antisense e[5mC]*eA*eG*e[5mC]*e[5mC]*dT*dG*dA*dG*dG*d[5mC]*d[5mC]*dA*dG*d[5mC]*eA*eG*eA*eT*e[5mC]) [compound 416477] | 78
416507 (antisense eG*eG*eT*eT*eA*d[5mC]*dT*dG*dA*dG*d[5mC]*dG*d[5mC]*dG*dG*eA*eA*eG*eA*eA) [compound 416507] | 77
416508 (antisense e[5mC]*eG*eA*eG*eT*dT*d[5mC]*dT*dG*d[5mC]*dA*dG*dG*dA*dG*e[5mC]*eG*eG*e[5mC]*e[5mC]) [compound 416508] | 79
416549 (antisense eG*eA*e[5mC]*eA*eA*dT*dG*dG*dT*d[5mC]*dA*dG*dG*dG*d[5mC]*eT*eG*eG*eT*eT) [compound 416549] | 73

same assay, conditions: Table 7, 100.0 nM, approximately 16 hours

Substance | percent inhibition of Factor 7 [%]
416477 (antisense e[5mC]*eA*eG*e[5mC]*e[5mC]*dT*dG*dA*dG*dG*d[5mC]*d[5mC]*dA*dG*d[5mC]*eA*eG*eA*eT*e[5mC]) [compound 416477] | 87
416507 (antisense eG*eG*eT*eT*eA*d[5mC]*dT*dG*dA*dG*d[5mC]*dG*d[5mC]*dG*dG*eA*eA*eG*eA*eA) [compound 416507] | 72
416508 (antisense e[5mC]*eG*eA*eG*eT*dT*d[5mC]*dT*dG*d[5mC]*dA*dG*dG*dA*dG*e[5mC]*eG*eG*e[5mC]*e[5mC]) [compound 416508] | 89
416549 (antisense eG*eA*e[5mC]*eA*eA*dT*dG*dG*dT*d[5mC]*dA*dG*dG*dG*d[5mC]*eT*eG*eG*eT*eT) [compound 416549] | 78
